In data set [1] the test system is luxC gene transcription under the tetracycline response element in HEK293 cells (pLuxAB/pLuxCDEfrp-TET). Put plainly: rt-PCR of luxC transcription in response to doxycycline. The class given is cell-based, human. Conditions: for average CT value for luxC detection: 24 h, average of eleven cell lines; for increase in luxC transcription / reduction of cycles to reach CT: best performing cell line. The procedure: Twenty-four h post-transfection, the medium was removed and replaced with complete medium supplemented with the appropriate antibiotic. Selection of successfully transfected clones was performed by refreshing selective medium every 4-5 d until all untransfected cells had died. At this time, colonies of transfected cells were removed by scraping, transferred to individual 25 cm^2 cell culture flasks, and grown in complete medium supplemented with the appropriate antibiotics. To screen the resulting cell lines for the ability to regulate luxC transcription in response to doxycycline, relative reverse transcription PCR (rt-PCR) was used to determine the level of luxC mRNA present 24 h following the addition of 0, 10, or 100 ng doxycycline/ml to the complete growth medium. To this end, each isolated cell line was split into 4 25 cm^2 cell culture flasks upon reaching 80% confluence. Cells were then grown at 37° C. and 5% CO2 until again reaching ˜80% confluence. At this point, one of the flasks was routinely passaged to maintain a stock of cells for future use. The remaining 3 flasks were spiked with 0, 10, or 100 ng doxycycline/ml and returned to the incubator. Twenty-four h post doxycycline addition, cells were harvested and total RNA was isolated using an RNeasy isolation kit (Qiagen). Isolated RNA was used directly for rt-PCR analysis, and cell lines displaying the greatest range in luxC transcription between 0 ng Doxycycline/ml treatment and either 10 ng or 100 ng doxycycline/ml treatment were selected for bioluminescent screening.

Data set [2] concerns tetracycline responsive lux reporter HEK293 cells (pLuxAB/pLuxCDEfrp-TET). Put plainly: Bioluminescent measurement in response to doxycycline. The class given is cell-based, human. As to conditions: for average total flux: 24 h period; for range of total flux over the course of the assay: after 1 h post treatment. As for the experimental part: Cell lines displaying the greatest upregulation of luxC gene transcription following treatment with 10 ng and 100 ng Doxycycline/ml were passaged into 75 cm^2 tissue culture flasks (Corning) and grown at 37° C. and 5% CO2 until they reached 90% confluence. Cells were then harvested by trypsinization and cell number was determined as the average of two counts using a hemocytometer. Approximately 1×10^6 cells per well were plated in triplicate in opaque 24-well tissue culture plates (Costar) in DMEM without phenol red and supplemented with 10% fetal bovine serum, 0.01 mM non-essential amino acids, and 0.01 mM sodium pyruvate. Immediately post plating, wells were spiked with either 0, 10, 100, or 500 ng Doxycycline/ml. Photon counts were then recorded using an IVIS Lumina in vivo imaging system and analyzed with Living Image 3.0 software (Caliper Life Sciences). The change in light output over time was determined in photons (p)/sec (s) for each well by averaging the photon output over integration times of 10 min and reported with the standard error of the mean.

Data set [3] concerns the target T1, bacterial luciferase (lux) in protein extracts of HEK293 cells (Photorhabdus luminescens, UniProt P19839).
T1 construct: expressed in transfected cells; host or cells: HEK293 cells stably carrying pLuxAB (luxA-IRES-luxB, CMV promoter), co-transfected with pLuxCDEfrp:WT or pLuxCDEfrp:CO; The soluble protein extract was made by freeze/thaw
T1 sequence (P19839 1-360): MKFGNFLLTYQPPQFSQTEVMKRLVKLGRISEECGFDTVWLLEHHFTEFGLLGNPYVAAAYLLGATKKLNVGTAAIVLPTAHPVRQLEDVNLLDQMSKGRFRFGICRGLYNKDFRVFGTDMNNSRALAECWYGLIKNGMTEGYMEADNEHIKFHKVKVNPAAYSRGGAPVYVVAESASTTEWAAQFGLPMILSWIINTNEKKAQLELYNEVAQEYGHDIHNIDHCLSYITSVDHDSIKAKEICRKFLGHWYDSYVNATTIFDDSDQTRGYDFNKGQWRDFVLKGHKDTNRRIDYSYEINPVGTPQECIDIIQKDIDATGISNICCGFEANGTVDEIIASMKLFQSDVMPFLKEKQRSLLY
T1 sequence (P19840 1-327 partner): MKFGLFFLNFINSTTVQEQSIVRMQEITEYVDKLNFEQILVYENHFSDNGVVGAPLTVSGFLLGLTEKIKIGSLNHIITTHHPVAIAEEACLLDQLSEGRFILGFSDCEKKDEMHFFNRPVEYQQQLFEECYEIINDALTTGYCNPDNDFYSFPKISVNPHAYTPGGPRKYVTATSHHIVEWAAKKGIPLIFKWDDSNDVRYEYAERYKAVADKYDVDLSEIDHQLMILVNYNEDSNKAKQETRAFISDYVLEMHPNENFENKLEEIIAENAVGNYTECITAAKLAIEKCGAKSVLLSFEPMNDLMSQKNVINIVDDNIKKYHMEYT
Put plainly: In vitro supplementation assays of lux cell extracts (oxidoreductase, aldehyde). The class given is biochemical, P. luminescens. Conditions: 0.002% (w/v) n-decanal. The procedure: Bioluminescence was measured using an FB 14 luminometer (Zylux) with a 1 sec integration time. To prepare the sample for in vitro bioluminescent measurement, 400 μl of the isolated protein extract was combined with 500 μl of either oxidoreductase supplemented light assay solution containing 0.1 mM NAD(P)H, 4 μM FMN, 0.2% (w/v) BSA and 1 U of oxidoreductase protein isolated from V. fischeri (Roche), or oxidoreductase deficient light assay solution (distilled water substituted for the 1 U of oxidoreductase protein). Following the initial bioluminescent reading, samples were amended with 0.002% (w/v) n-decanal and the readings were continued to determine if additional aldehyde could increase light output. All bioluminescent signals were normalized to total protein concentration as determined by BCA protein assay (Pierce) and reported as relative light units (RLU)/mg total protein. […] A 15 μl aliquot of cells was removed and counted using a hemocytometer to allow all values to be normalized to viable cell counts. […]
Total protein was extracted from co-transfected pLuxCDEfrp:CO/pLuxAB or pLuxCDEfrp:WT/pLuxAB cell lines or the pTa2AluxAB transfected cell line using a freeze/thaw procedure. […] Bioluminescence was measured using an FB14 luminometer (Zylux) with a 1 sec integration time. […]

The subject of data set [4] is constitutively bioluminescent HEK293 cells expressing pLuxCDEfrp/pLuxAB. Put plainly: Bioluminescent measurement in response to toxic chemical exposure (n-decanal). The class given is cell-based, human. The procedure:
To determine the ability of constitutively bioluminescent HEK293 cells to function as a bioreporter for toxic chemical exposure, cells stably expressing pLuxCDEfrp/pLuxAB were exposed to increasing concentrations of the cytotoxic aldehyde n-decanal. HEK293 cells previously determined to be capable of continuous bioluminescent output from the expression of the pLuxCDEfrp/pLuxAB plasmids were passaged into 75 cm^2 tissue culture flasks (Corning) and grown at 37° C. and 5% CO^2 until they reached 90% confluence. Cells were then harvested by trypsinization and cell number was determined as the average of two counts using a hemocytometer. Approximately 1×10^6 cells per well were plated in all wells in opaque 24-well tissue culture plates (Costar) in DMEM without phenol red and supplemented with 10% fetal bovine serum, 0.01 mM non-essential amino acids, and 0.01 mM sodium pyruvate. Triplicate wells were treated with serial dilutions of n-decanal ranging from 0.1% to 1×10^−5%, with a control set receiving no n-decanal amendment to determine maximal bioluminescent expression. Photon counts were then recorded using an IVIS Lumina in vivo imaging system and analyzed with Living Image 3.0 software (Caliper Life Sciences). The change in light output over time was determined in photons (p)/sec/cm^2/steridian (sr) for each well using integration times of […] once every hour for 24 h and reported as the average of three runs with the standard error of the mean.

The conditions of data set [5]: native state, 37° C.; cited from earlier work.

For the molecule `C[C@H]1c2cccc(O)c2C(=O)C2=C(O)[C@]3(O)C(=O)C(C(N)=O)=C(O)[C@@H](N(C)C)[C@@H]3[C@@H](O)[C@@H]21` [doxycycline], in data set [1] (10 ng doxycycline/ml), the “average CT value for luxC detection” value is on record as 11.9 (±0.7) cycles, the “increase in luxC transcription” value is “approximately 11 fold” and the “reduction of cycles to reach CT” value was 3.5 cycles. Besides, in data set [1] (100 ng doxycycline/ml), the “average CT value for luxC detection” value is 11.5 (±0.6) cycles, the “increase in luxC transcription” value is given as around 20 fold and the “reduction of cycles to reach CT” value is reported as 4.3 cycles. In addition, the average total flux in data set [2] (10 ng doxycycline/ml, not significant vs untreated (p=0.06)) was 11,500 (±200) p/s. Also, the “range of total flux over the course of the assay” value in data set [2] (10 ng doxycycline/ml) is given as 1,900 p/s. In data set [2] (100 ng doxycycline/ml), the “incubation period to significant up regulation in bioluminescent output” value was 1 h and the “range of total flux over the course of the assay” value was 1,800 p/s. For the same molecule, the average total flux in data set [2] (100 ng doxycycline/ml, significant vs untreated (p=1.1×10^−5)) is 12,500 (±200) p/s. Besides, the maximum measured flux in data set [2] (induced with 100 ng doxycycline/ml) is given as 1.3 (±0.03)×10^4 p/s.
Turning to `CCCCCCCCCC=O` [n-decanal], the figures for the “increase in light output” value in data set [3] (extracts of cells with codon-optimized genes) and in data set [3] (extracts of cells with wild-type genes) were 58 fold and 16 fold, respectively. In addition, the “molar concentration corresponding to the 0.01% treatment” value in data set [4] (0.01% decanal) was around 640 µM. Moreover, the “start of intermittent deviation in bioluminescent flux” value in data set [4] (0.01% decanal, post addition) is 40 min. For the same molecule, in data set [4] (0.01% n-decanal), the “time after addition until deleterious effects consistently observable” value came out at 4 h. For the same molecule, the “effect on bioluminescent output” value in data set [4] (0.1% n-decanal) is recorded as “reduced bioluminescent output immediately following addition”; in data set [4] (remaining treatment levels (below 0.01%, down to 1×10^−5%)) it was “could not be statistically differentiated from cells not receiving treatment”. For the same molecule, the “concentration at which the aldehyde became toxic to the HEK293 cell line” value in data set [4] (24 h assay) is at least 0.01%.
For the molecule “firefly luciferase protein: firefly luciferase reporter protein, heat labile under whole animal imaging conditions”, the half life in data set [5] is at least 3 min.
